Data reported in patent US20220127298A1, “THERMOSPOROTHRIX HAZAKENSIS-DERIVED ANTIBACTERIALLY ACTIVE SUBSTANCE” (KENNAN EISEI KOGYO CO., LTD., priority 2019, published 2022).
Converted amounts (≈) assume the structure as drawn.

Experiments:
[1] = system: Geobacillus stearothermophilus 111499 MERCK (ATCC 7953); experiment: Measurement of minimum inhibitory concentration, dilution method with liquid culture medium; assay type: cell-based; conditions: ATCC7953, LB liquid medium, 60° C., 135 rpm, 18 hours, visual observation and OD600
Source text: The minimum inhibitory concentration (MIC) is one of the antibiotic susceptibility tests, and means the minimum concentration of an antimicrobial substance at which the visible growth of a microorganism can be inhibited. In the research field, the MIC measurement is used, for example, to compare the effects of a new antibiotic substance and a conventional substance, or to examine actions on several strains, and is regarded as an important criterion for evaluating antibiotic substances. The MIC of “HK-1” which was obtained hereunder as the antibacterial active substance was measured using the dilution method with a liquid culture medium.
A piece of ice out of a glycerol stock of G. stearothermophilus stored at −80° C. was planarly inoculated on the LB agar culture medium with a toothpick. This was incubated at 60° C. for 18 hours. One (1) cm^2 of the culture medium was excavated with a toothpick, placed into a long test tube containing 10 mL of a liquid LB culture medium, and subjected to a shaking culture at 60° C., and 300 rpm, for 18 hours. The culture solution was diluted with sterile water to about McF standard No. 1.
Two (2) mg of HK-1 was weighed out into a 2 mL Eppendorf tube using an electric balance. To this Eppendorf tube, 2 mL of methanol was added to dissolve the HK-1 to form a […] solution. The solution was filtrated through a sterilized […] filter. […]

[2] = system: Bacillus subtilis NBRC 3134^T; experiment: Antibacterial activity test in changing pH, paper disk assay; assay type: cell-based; conditions: 1000 γ in methanol, 50 μL on paper disk, 37° C., 18 hours
Method: Into a 50-mL Falcon tube, 20 mg of HK-1 was weighed out using an electric balance, and therein 20 mL of methanol (1000 γ) was added followed by gentle stirring. Each 3.3 mL was aliquoted to totally two 15-mL Falcon tubes. To one of them 20 μL of 1 N sodium hydroxide was added followed by gentle stirring. The pH was tested with a pH test paper. Ten (10) μL of each sample was subjected to HPLC. The HPLC analysis conditions are as follows. The stability of a compound is regarded as one of the important information for evaluating a substance. This is because, even if the external environment changes, insofar as the compound itself is stable, it can be applied in various situations, and the information leads to acquisition of biological knowledges. Therefore, the stability of the activity was examined by measuring antibacterial activities with respect to G. stearothermophilus, and B. subtilis using the solution prepared in the above “1. Antibacterial spectrum test”. (1) In a 200-mL Erlenmeyer flask, 100 mL of a NB culture medium was prepared and sterilized in an autoclave (121° C., 20 min). (2) After cooling to 50° C. or lower, 100 μL of the B. subtilis spore suspension was added. […] The culture medium was taken out from the incubator, and the diameter of the inhibition ring was measured with calipers (Kanon hardened stainless 150 mm).

[3] = system: Streptomyces griseus NBRC 15744^T; experiment: Antibacterial spectrum test, paper disk assay; assay type: cell-based; conditions: 50 μL of 1000 γ solution in methanol, YMPD medium, 28° C., 4 days
Method: (§1) The antibacterial activity of HK-1 was assayed using a paper disk against the following bacterial bodies.
(§2) A piece of ice out of a glycerol stock of S. griseus stored at −80° C. was planarly inoculated on the YMPD agar culture medium with a toothpick. This was incubated at 28° C. for 5 days. After the incubation, a small amount of spore was scraped off with a swab, and planarly inoculated on the YMPD culture medium. A piece of paper disk was placed on a filter paper, onto which 50 μL of a HK-1 solution adjusted to 1000 γ with methanol was dropped and dried. Then the disk was placed on the agar culture medium coated with the bacterial body. After incubation at 28° C. for 4 days, the diameter of the inhibition ring was measured.

[4] = pH stability by HPLC analysis; assay type: physicochemical; conditions: methanol solution 1000 γ
Method: Into a 50-mL Falcon tube, 20 mg of HK-1 was weighed out using an electric balance, and therein 20 mL of methanol (1000 γ) was added followed by gentle stirring. Each 3.3 mL was aliquoted to totally two 15-mL Falcon tubes. To one of them 20 μL of 1 N sodium hydroxide was added followed by gentle stirring. The pH was tested with a pH test paper. Ten (10) μL of each sample was subjected to HPLC. The HPLC analysis conditions are as follows. Column: CAPCELL PAK Cis 5 μm, 4.6 mm 1. D×150 mm Mobile phase A: 0.1% aqueous solution of trifluoroacetic acid Mobile phase B: acetonitrile Temperature of thermostatic chamber for column: 40° C. Flow velocity: 1 mL/min UV: 254 nm Elution method: concentration gradient • 0 min to 18 min, B concentration 50% to 100% • 18.1 min to 23 min, B concentration 100% • 23.1 min to 25 min, B concentration 50%

[5] = system: Thermosporothrix hazakensis SK20-1^T NBRC 105916^T; experiment: Antibacterial spectrum test, paper disk assay; assay type: cell-based; conditions: 50 μL of 1000 γ solution in methanol, YS medium, 50° C., 2 days
Method: as §1, §2
(§3) Assays were performed in the same manner as in 3 above, except that the incubation conditions were changed to YS culture medium (see Example 1), 50° C., and 2-day period.

[6] = system: Thermosporothrix narukonensis F4^T; experiment: Antibacterial spectrum test, paper disk assay; assay type: cell-based; conditions: 50 μL of 1000 γ solution in methanol, YS medium, 50° C., 2 days
Method: as §1, §2, §3

Streptomyces sp. AGRN-7 = experiment: Antibacterial spectrum test, paper disk assay; assay type: cell-based; conditions: 50 μL of 1000 γ solution in methanol, ISP2 medium, 45° C., 2 days
Method: as §1, §2
An assay was performed in the same manner as in 3 above, except that the incubation conditions were changed to ISP2 culture medium, 45° C., and 2-day period.

## COc1cc(OOc2cc(OC)c3c(c2-c2c(O)c(Cl)c(C)c4c2C(O)c2c(Cl)c(O)cc(O)c2C4=O)C(OC2OC(C)C(O)C2O)c2c(Cl)c(OC)c(Cl)c(C)c2C3=O)c(-c2c(O)c(Cl)c(C)c3c2C(O)c2c(Cl)c(O)cc(O)c2C3=O)c2c1C(=O)c1c(C)c(Cl)c(OC)c(Cl)c1C2OC1OC(C)C(O)C1O (stereo not drawn) [HK-1]
[1]
  MIC: 0.78 µg/mL (≈ 0.474 µM)
[2]; solution with pH adjusted to 9
  inhibition ring diameter: 20.2 mm
[2]; solution with pH not adjusted
  inhibition ring diameter: 18.5 mm
[3]
  inhibition ring diameter: 38.0 mm
[4]; pH adjusted to 9 with 1 N sodium hydroxide
  pH stability (degradation peak in HPLC analysis): stable with no recognizable degradation peak
[4]; pH not adjusted
  pH stability (degradation peak in HPLC analysis): stable with no recognizable degradation peak
[5]
  inhibition ring diameter: 10.0 mm
[6]
  inhibition ring diameter: 10.0 mm
Streptomyces sp. AGRN-7
  inhibition ring diameter: 22.0 mm
